Assay results published in US20070191437A1, “Continuous Dosing Regimen” (priority 2003, published 2007).
Marks after values point to notes of the source that are not given here.

Columns and labels:
[1] = Clinical 21-day QD regimen, MTD determination; type: in vivo
[2] = test system: HT-29 colon carcinoma; assay: Staged human tumor xenograft, HT-29; type: in vivo; settings: oral 75 mg/kg/d QD, d 10-14, 20-24
Description: (§1) (2-((hydroxyphenyl)amino)pyrid-3-yl)-4-methoxybenzenesulfonamide inhibited the growth of a variety of human tumor xenografts that were allowed to grow into established tumors prior to the initiation of treatment. As summarized below, activity was seen against established tumors derived from colon, breast and lung carcinomas. (2-((4-hydroxyphenyl)amino)pyrid-3-yl)-4-methoxybenzenesulfonamide was also active against a human pancreatic tumor xenograft grown in the orthotopic site.

[3] = Clinical 7-day QD regimen, MTD determination; type: in vivo
Protocol: In the 7-day QD regimen, the 250 mg QD dose has been determined to be the MTD, as dose limiting toxicities of peripheral neuropathy/ileus were reported in 2 of 6 subjects at the 300 mg QD dose.

[4] = Clinical safety review, adverse events by grade; type: in vivo, human
Protocol: For 134 patients tested, at doses of about 200 mg QD, 250 mg QD, 300 mg QD, 125 mg BID, 150 mg BID, and 175 mg BID, 16 reported anemia, of which 11 were Grades I or II and 5 were Grades (III or IV); 1 reported Grade I or II alpoecia; 8 reported Grade I or II neutropenia; and none reported fluid retention, for which Grade I is defined as mild, Grade II is defined as moderate, Grade III is defined as severe, Grade IV is defined as life threatening.

[5] = Clinical single dose and 5-day repeated dose study in 57 cancer subjects; type: in vivo, human
Protocol: (2-((4-hydroxyphenyl)amino)pyrid-3-yl)-4-methoxybenzenesulfonamide was evaluated in 57 cancer subjects in single dose (16 subjects) and 5-day repeated dose regimens (41 subjects). The doses administered in the single dose segment were 80 to 480 mg/m^2/day. In the 5-day repeated dose regimen (2-((4-hydroxyphenyl)amino)pyrid-3-yl)-4-methoxybenzenesulfonamide was given at 30 to 240 mg/m^2/day for a single cycle. […] Adverse drug reactions from the single dose and 5-day repeated dose segments included nausea and vomiting, diarrhea, epigastric pain, ileus and evidence of peripheral neuropathy. For the single dose segment, the dose limiting toxicity (DLT) was Grade 3 peripheral neuropathy in 1 of 5 subjects at 480 mg/m^2/day. In the 5-day repeated dose regimen the dose limiting toxicities were Grade 3 peripheral neuropathy in 1 of 4 subjects at 210 mg/m^2/day and Grade 4 intestinal paralysis in 1 of 4 subjects at 210 mg/m^2/day and in 1 of 6 subjects at 240 mg/m^2/day.

[6] = test system: HCT-15 human colon carcinoma; assay: HCT-15 human colon carcinoma xenografts; type: in vivo; settings: for efficacy in inhibiting tumor growth: MDR positive line
Description: HCT-15 is a human colon carcinoma derived cell line. It is MDR positive, and expresses both mutant p53 and oncogenic K-ras. The HCT-15 cell line has one of the highest levels of mdr-1/P-glycoprotein expression of cells from the NCI tumor cell line panel.

[7] = Calu-6 flank xenograft model in male scid mice, HPM with docetaxel (Example 1); type: in vivo; settings: male, scid, mouse, in vivo
Protocol: (§2) Male scid mice (Charles River Labs.) were injected subcutaneously with 0.2 mL of 2×10^6 Calu-6 cells (1:1 with matrigel) on study day 0. The cellular implantation site was the right flank, and all mice were ear tagged. On day 13, tumors were size matched to 247 mm^3 and animals were placed into the therapy groups outlined in the study design below. All treatments were initiated on day 13 post tumor inoculation. The tumors were measured with calipers 2 times per week after tumors were palpable. Tumor volumes were calculated according to the formula V=L×W^2/2 (V: volume, mm^3; L: length, mm. W: width, mm). Mouse group weights were taken 2 times per week to monitor weight loss from toxicity or excessive tumor burden. The mice were humanely euthanized when the tumor volumes reached a predetermined size. The study design was as follows:
(§3) 1. HPM vehicle and docetaxel at 20 mg/kg/day.
(§4) 2. HPM vehicle and docetaxel at 10 mg/kg/day.
(§5) 3. HPM at 100 mg/kg/day and docetaxel vehicle.
(§6) 4. HPM at 75 mg/kg/day and docetaxel vehicle.
(§7) 5. HPM at 100 mg/kg/day and docetaxel at 20 mg/kg/day.
(§8) 6. HPM at 100 mg/kg/day and docetaxel at 10 mg/kg/day.
(§9) 7. HPM at 75 mg/kg/day and docetaxel at 20 mg/kg/day.
(§10) 8. HPM at 75 mg/kg/day and docetaxel at 10 mg/kg/day.
(§11) 9. HPM vehicle and docetaxel vehicle.
(§12) HPM was dosed orally on a (q.d.×5, 5 days off)×2 schedule. The drug was formulated in 1% HCl, 4% ethanol, and 95% D5W. Docetaxel was dosed intravenously, (q.10d.)×2 and formulated in saline.

[8] = test system: MiaPaCa2 pancreatic; assay: MiaPaCa2 pancreatic xenograft model, combination with gemcitabine; type: in vivo; settings: in combination with gemcitabine
[9] = test system: Calu-6 lung carcinoma; assay: Staged human tumor xenograft, Calu-6; type: in vivo; settings: oral 75 mg/kg/d QD, d 10-14, 20-24
Description: as §1

[10] = test system: NCI-H460 human non-small cell lung carcinoma; assay: NCI-H460 xenograft model; type: in vivo; settings: for activity: comparators
Description: NCI-H460 is a human non-small cell lung carcinoma derived cell line. It is MDR negative, has wild type p53, and contains an oncogenic K-ras mutation.

[11] = test system: MDA-MB-468 breast carcinoma; assay: Staged human tumor xenograft, MDA-MB-468; type: in vivo
Description: as §1

[12] = test system: C26 colon tumors; assay: C26 colon tumors grown in the flank of CDF-1 mice; type: in vivo
[13] = test system: M5076 murine reticulum cell sarcoma; settings: for response of the model to the drug / ILS: comparator drugs, dose not given
[14] = test system: Calu-6 lung; assay: Calu-6 lung subcutaneous flank xenografts in male nude mice, HPM with cisplatin (Example 6); type: in vivo; settings: 10 mg/kg/day i.p., q.d × 1
Protocol: In a non-small cell lung cancer study, tumor cells were inoculated s.c. into male nude mice on day 0. On day 10, mice bearing established tumors were size matched at about 233 mm^3 and placed into the following groups: • 1. […]., 5 days on, 5 days off ×2) • 2. PM-75 mg/kg/day (p.o., q.d., 5 days on, 5 days off×2) • 3. PM-0 mg/kg/day (p.o., q.d., 5 days on, 5 days off ×2) • 4. […] Cisplatin 0 mg/kg/day (ip, qd ×1) • 6. […] Combination Therapy Vehicles

[15] = test system: MDA-MB-468 breast; assay: MDA-MB-468 breast subcutaneous flank xenografts in female nude mice, HPM with docetaxel (Example 3); type: in vivo; settings: 33.3 mg/kg/day i.v., q.d × 1
Protocol: Tumor cells derived from serially passaged tumor fragments were inoculated s.c. in female nude mice on day 0. On day 10, mice bearing established tumors were size matched at about 231 mm^3 and divided into the following groups:
1. HPM at 100 mg/kg/day (p.o., q.d., 5 days on, 5 days off ×2)
2. HPM at 75 mg/kg/day (p.o., q.d., 5 days on, 5 days off ×2)
3. HPM at 0 mg/kg/day (p.o., q.d., 5 days on, 5 days off ×2)
4. Docetaxel at 33.3 mg/kg/day (i.v., q.d. ×1)
5. Docetaxel at 0 mg/kg/day (i.v., q.d. ×1)
6. Combination therapy: HPM at 100 mg/kg/day and docetaxel at 33.3 mg/kg/day
7. Combination therapy: HPM at 75 mg/kg/day and docetaxel at 33.3 mg/kg/day

[16] = test system: Calu-6 cells; assay: Calu-6 flank xenograft model in male scid mice, HPM with docetaxel (Example 1); type: in vivo; settings: docetaxel q.10d. at 20 mg/kg/day
Protocol: as §2, §3, §4, §5, §6, §7, §8, §9, §10, §11, §12

[17] = molecular target: biotinylated bovine brain tubulin; settings: competition of [3H]colchicine
[18] = 134 patients, 200-300 mg QD, 125-175 mg BID
[19] = 5-day repeated dose regimen, 210 mg/m^2/day

What does the source list for `COc1ccc(S(=O)(=O)Nc2cccnc2Nc2ccc(O)cc2)cc1` [ABT-751, N-(2-((4-Hydroxyphenyl)amino)pyridin-3-yl)-4-methoxybenzenesulfonamide]?
MTD ([1]; QD regimen given for 21 days): 200 mg; dose limiting toxicities of fatigue, anorexia and suspect small bowel obstruction, subjects ([1]; human, in vivo, 21 days): 2/3; % ILS [2]: 50%; MTD ([3]; 7-day QD regimen): 250 mg; dose limiting toxicities of peripheral neuropathy/ileus, subjects ([3]; human, in vivo, 7 days): 2 of 6; patients who reported Grade I or II alopecia [4, 18]: 1; patients who reported Grade I or II neutropenia [4, 18]: 8; patients who reported anemia [4, 18]: 16; patients who reported fluid retention [4, 18]: none; patients with anemia of Grades I or II [4, 18]: 11; patients with anemia of Grades III or IV [4, 18]: 5; myelosuppression, renal or hepatic toxicity ([4]; review of the safety data of the three studies): no significant myelosuppression, renal or hepatic toxicity; dose limiting toxicity: Grade 3 peripheral neuropathy, subjects [5, 19]: 1 of 4; dose limiting toxicity: Grade 4 intestinal paralysis, subjects [5, 19]: 1 of 4; dose limiting toxicity: Grade 4 intestinal paralysis, subjects ([5]; 5-day repeated dose regimen, 240 mg/m^2/day): 1 of 6; AUC versus dose ([5]; range of 30 to 480 mg/m^2/day): increased proportionally with dose; accumulation ([5]; range of 30 to 480 mg/m^2/day): no apparent accumulation; dose limiting toxicity: Grade 3 peripheral neuropathy, subjects ([5]; single dose segment, 480 mg/m^2/day): 1 of 5; % ILS ([6]; 50 mg/kg/d PO, QD, days 1-8): 34%; T/C (no. trials) ([6]; 50 mg/kg/d PO, QD, days 1-8): 50(2); efficacy in inhibiting tumor growth [6]: effective in inhibiting tumor growth; MTD ([7]; po, HPM orally (q.d.×5, 5 days off)×2, mice): 100 mg/kg/day; antitumor activity compared to single agent alone [8]: increase in antitumor activity; % ILS [9]: 58%; T/C, mean tumor volume at day 13 ([10]; day 13 vs vehicle control): 58%; ILS (delay in tumor growth) ([10]; in vivo): 32%; % T/C ([11]; oral 50 mg/kg/d QD, d 1-21): 46%; % T/C ([11]; oral 75 mg/kg/d QD, d 10-14, 20-24): 33%; % T/C ([11]; oral 100 mg/kg/d QD, d 10-14, 20-24): 25%; antitumor activity ([12]; 5-day schedule): only marginally active; antitumor activity ([12]; extended dosing, equivalent to BCNU at the MTD): significant antitumor response; ILS (percent increase in life span) ([13]; 150 mg/kg orally once a day for 5 days): 42%; approximate MTD ([13]; orally once a day for 5 days): ~150 mg/kg

Which “% TGD^a: median % TGD increase compared to vehicle treated controls in time to 1 cc” value [14] does the source give for `N.N.[Cl][Pt][Cl]` [Cisplatin, cisplatin] here?
The value was 71*** %.

Which “response of the model to the drug” value [13] does the source give for `O=P1(N(CCCl)CCCl)NCCCO1` (centres unmarked) [cyclophosphamide] here?
Its value is “sensitive”.

What does the source list for `CC(=O)O[C@@]12CO[C@@H]1C[C@H](O)[C@@]1(C)C(=O)[C@H](O)C3=C(C)[C@@H](OC(=O)[C@H](O)[C@@H](NC(=O)OC(C)(C)C)c4ccccc4)C[C@@](O)([C@@H](OC(=O)c4ccccc4)[C@H]21)C3(C)C` [docetaxel]?
% TGD^a: median % TGD increase compared to vehicle treated controls in time to 1 cc [15]: 67*** %; maximum wt loss [16]: 8%; MTD ([7]; intravenous, docetaxel on a q.10d.×2 schedule, mice): 25 mg/kg/day

With `COc1cccc2c1C(=O)c1c(O)c3c(c(O)c1C2=O)C[C@@](O)(C(=O)CO)C[C@@H]3O[C@H]1C[C@H](N)[C@H](O)[C@H](C)O1` [doxorubicin] as the compound, how does the ILS [13] read?
Its ILS is 13%.

Which results are given for `CC(=O)O[C@H]1C(=O)[C@@]2(C)[C@H]([C@H](OC(=O)c3ccccc3)[C@]3(O)C[C@H](OC(=O)[C@H](O)[C@@H](NC(=O)c4ccccc4)c4ccccc4)C(C)=C1C3(C)C)[C@]1(OC(C)=O)CO[C@@H]1C[C@@H]2O` [paclitaxel, reference compound]?
efficacy in inhibiting tumor growth [6]: not efficacious; activity [10]: lacked activity; antitumor activity ([12]; comparator, dose not given): not efficacious; response of the model to the drug [13]: resistant

With `CC[C@]1(O)C[C@@H]2CN(CCc3c([nH]c4ccccc34)[C@@](C(=O)OC)(c3cc4c(cc3OC)N(C)[C@H]3[C@@](O)(C(=O)OC)[C@H](OC(C)=O)[C@]5(CC)C=CCN6CC[C@]43[C@@H]65)C2)C1` [vinblastine] as the compound, how does the Ki [17] read?
Its Ki is > 100 µM.

For `CC[C@]1(O)C[C@H]2CN(CCc3c([nH]c4ccccc34)[C@@](C(=O)OC)(c3cc4c(cc3OC)N(C=O)[C@H]3[C@@](O)(C(=O)OC)[C@H](OC(C)=O)[C@]5(CC)C=CCN6CC[C@]43[C@@H]65)C2)C1` [vincristine, reference compound], which “efficacy in inhibiting tumor growth” value [6] is on record?
Its value is “not efficacious”.

And the activity [10]?
The activity was “lacked activity”.

And the ILS [13]?
Its ILS is 17%.
